Experimental data published in publication PMC6748948, “A Bone Morphogenetic Protein (BMP)-derived Peptide Based on the Type I Receptor-binding Site Modifies Cell-type Dependent BMP Signalling” (Scientific Reports, 2019).
Peptide text beside a SMILES is read from it.

How the values were obtained:
ALK1 = conditions: read-out: affinity of ALK1 for BMP9; cited from earlier work
Protocol: (§1) It is intriguing why the same peptide could promote BMP9 signalling in PAECs while inhibit BMP4 signalling in HMECs, an effect which is also recapitulated in the SPR binding studies (Fig. 4A–D, Supplemental Fig. 4). Whilst it is difficult to provide a direct structural explanation, this may relate to the difference in affinities and concentrations of the receptors for the ligands. ALK1 binds BMP9 with affinity of around 0.03 nM[8]. The reported KD values of BMP4 for ALK3 (with ALK3 expressed from different host cells) are 1–10 nM[30],[31]. It is plausible that the inhibitory effect of P3 on BM ...

ALK3 = ALK3 expressed from different host cells; read-out: KD values of BMP4 for ALK3; cited from earlier work
Protocol: as §1

[1] = system: ALP activity in C2C12 cells; assay: BMP9-induced ALP activity in C2C12 cells; assay type: cell-based, mouse; conditions: peptide 160 μM with BMP9, 65 h, DMEM 0.25% FBS, three independent experiments in duplicate
Protocol: C2C12 mouse myoblasts were seeded in 24-well plates at 25,000 cells/well with antibiotics for 48 h. Treatments were performed in DMEM, 0.25% FBS with antibiotics in a final volume of 1.1 ml for 65 h. Cells were harvested and lysed in 1% Triton-X100 in PBS and the extracted total protein was quantified by Bio-Rad DC^TM protein assay (Bio-Rad). ALP activity was determined by incubating 15 μg of the total protein with ALP substrate p-nitrophenyl phosphate (PNPP, Sigma-Aldrich) and absorbance of the product p-nitrophenol (PNP) was recorded at 405 nm in 5 min intervals for 1 h. The relative ALP activity was expressed as fold change to the BMP9-treated control with data presented as means ± S.E.

[2] = system: Smad1/5 phosphorylation in HMEC-1; assay: BMP4-induced Smad1/5 phosphorylation in HMEC-1; assay type: cell-based, human; conditions: peptide 250 μM, BMP4 0.3 ng/ml (11.54 pM GFD dimer), N = 3
BMP4 binding to ALK3-Fc = assay: SPR, BMP4 binding to ALK3-Fc in the presence of peptide; conditions: BMP4 50 nM, peptide 0.25-1 mM, compared with P3
Protocol: Peptide-receptor binding assays were performed using Biacore T200 biosensor (Biacore/GE Healthcare). ALK1-Fc, ALK2-Fc or ALK3-Fc was covalently linked onto individual flow cells of a research grade CM5 chip (GE Healthcare) via amine-coupling using standard manufacturer’s protocol. One flow cell was used as a control for subtracting non-specific binding. Peptides were injected over the immobilised chip at various concentrations up to 1 mM at a flow rate of 30 μl/min for 3 min at 37 °C in running buffer containing 0.01 M HEPES, 0.5 M NaCl, 3 mM EDTA and 0.005% v/v Surfactant P20 (pH 7.4). At the end of each peptide injection, the chip surface was regenerated with 4 M Guanidine hydrochloride (GnHCl). The biotinylated peptide P3* was immobilised onto a streptavidin (SA) chip (GE Healthcare) following the manufacturer’s protocol. Binding assays were carried out using a similar protocol as described above, only with a different injection time of 4 min. For BMP9-ALK1 and BMP4-ALK3 binding assays, BMP9 and BMP4 were added at 50 nM alone or in the presence of peptide P3 or P3r at 0.25 mM, 0.5 mM or 1 mM. Each cycle was set with a dissociation time of 12 min. Duplicated injections were performed for each ligand along with buffer blanks. The equilibrium dissociation constant KD was determined by fitting the data to a steady-state model using BIAevaluation software (GE Healthcare). […]

[3] = system: Smad1/5 phosphorylation in hPAECs; assay: BMP9-induced Smad1/5 phosphorylation assay in hPAECs (immunoblot); assay type: cell-based, human; conditions: BMP9 0.03 ng/ml (1.24 pM GFD dimer), peptide 250 μM (P3 also dose-dependent), 40 min, serum-starved, immunoblot densitometry
Protocol: Endothelial cells were seeded in 6-cm dishes at 9 × 10^5 cells/dish and cultured for 24 hours (h) to full confluence, and then serum-starved for 16 h before treatments with control buffer, BMP9 alone, BMP9 with peptides, or peptides alone. After 40 min, cells were washed once with PBS and snap-frozen on dry ice to harvest. Cells were then lysed with buffer containing 125 mM Tris-HCl (pH 6.8), 2% SDS and 10% glycerol. The total protein concentration was determined using the DC^TM protein assay (Bio-Rad), of which 30 μg of total cell proteins was fractionated on 12% SDS-PAGE under non-reducing condition. The phosphorylation of Smad1/5 and total Smad1 were detected by anti-phospho-Smad1/5 antibody (9516 S) and anti-Smad 1 antibody (9743 S). The intensity of pSmad1/5 bands were quantified using ImageJ software, using β-actin or α-tubulin as the loading control.

## BMP9: bone morphogenetic protein 9, growth factor
ALK1
  Kd: ~0.03 nM

## BMP4: bone morphogenetic protein 4, growth factor
ALK3
  Kd: 1 to 10 nM

## CC[C@H](C)[C@H](NC(=O)[C@H](CC(=O)O)NC(=O)[C@@H](NC(=O)[C@@H](NC(=O)[C@H](CCCCN)NC(=O)[C@H](Cc1ccccc1)NC(=O)[C@@H](NC(=O)[C@H](CCCCN)NC(=O)[C@H](CC(=O)O)NC(=O)[C@H](CC(C)C)NC(=O)[C@H](CCC(N)=O)NC(=O)[C@H](C)NC(=O)[C@@H]1CCCN1C(=O)[C@@H](NC(=O)[C@@H](NC(=O)[C@H](CS)NC(=O)[C@@H](NC(=O)[C@@H]1CCCN1)[C@@H](C)O)[C@@H](C)O)[C@@H](C)O)C(C)C)[C@@H](C)O)[C@@H](C)O)C(=O)N[C@@H](Cc1c[nH]cn1)C(=O)N[C@@H](Cc1ccccc1)C(=O)N[C@@H](CS)C(=O)N[C@@H](Cc1c[nH]cn1)C(=O)N[C@@H](CC(C)C)C(=O)O [Peptide P3r] (H-PTCTTPAQLDKVFKTTDIHFCHL-OH; N-terminus and C-terminus assumed)
[1]
  effect on BMP9-induced ALP activity in C2C12 cells: No difference
[2]
  effect on BMP4-induced Smad1/5 phosphorylation in HMEC-1: failed to inhibit
BMP4 binding to ALK3-Fc
  competing BMP4 binding to ALK3 (in words): much less effective
[3]
  effect on BMP9-induced Smad1/5 phosphorylation in hPAECs: significantly enhanced
